Literature values in patent US20170068777A1, “METHODS OF IDENTIFYING AND F[…] COMPOUNDS THAT MODULATE PHENOTYPE-RELATED TARGETS” (Tufts University, priority 2015, published 2017).

Settings: shown experimentally in the literature

CC1(C)[C@@H](O)CC[C@]2(C)[C@H]3C(=O)C=C4[C@@H]5C[C@@](C)(C(=O)O)CC[C@]5(C)CC[C@@]4(C)[C@]3(C)CC[C@@H]12 [Glycyrrhetic acid]
effect on TG levels: lower TG levels

CC1(C(=O)O)CCC2(C)CCC3(C)C(=CCC4C5(C)CCC(O)C(C)(CO)C5CCC43C)C2C1 (centres unmarked) [Azukisapogenol]
effect on TG levels: lower TG levels
